Experimental data from patent US11406707B2, “STAT3 phosphorylation during graft-versus-host disease” (H. LEE MOFFITT CANCER CENTER AND RESEARCH INSTITUTE, INC., priority 2014, dated 2022).

How the values were obtained:
STAT5 = assay: IL-2-pulsed STAT5 phosphorylation in alloactivated T cells (flow cytometry); type: cell-based, human
Experimental: The 3-day exposure to allogenic moDCs allows the responding T cells to increase CD25 expression and capacity to receive IL-2 signaling, while resting or stimulated T cells phosphorylate STAT3 in response to IL-6 [Betts, B. C., et al. (2011) Blood 118, 5330-5339]. […] T-cell STAT phosphorylation was determined by surface staining for CD3, followed by fixation (CytoFix; […] The percentage of STAT3 and bright STAT5 phosphorylation in the T cells is depicted by the gates in each respective histogram (FIG. 1C, D).

iTregs and Tconvs = assay: iTreg and Tconv expansion from DC-allostimulated naive CD4+ T cells; type: cell-based, human
Experimental: To evaluate iTreg development, naive CD4^+ cells were isolated from nylon-wool-eluted T cells by magnetic-bead selection (Miltenyi Biotec), based on the positive expression of CD4 and lack of CD45RO, CD25, or both. In addition, CD127 staining of the naive CD4^+ cells was performed after the purification, to ensure depletion of natural Tregs from the cell product. Negligible amounts of CD127^-, CD25^Bright nTregs were observed after magnetic-bead purification. […] The T cells were harvested and surface stained on day 5 for CD3, -4, -25, and -127, followed by fixation and permeabilization (eBioscience), and then intracellular staining for Foxp3 [Liu, W., et al. (2006) J. Exp. Med. 203, 1701-1711; […]., et al. (2006) J. Exp. Med. 203, 1693-1700]. Tregs were characterized by gating on the live cells expressing surface CD3^+, CD4^+, and absence of CD127, followed by expression of Foxp3 and CD25^bright [Liu, W., et al. (2006) J. Exp. Med. 203, 1701-1711; […]., et al. (2006) J. Exp. Med. 203, 1693-1700]. The absolute number of iTregs and Tconv (CD4^+ CD25^-) cells was obtained by timed acquisition. The ratio of iTreg:Tconv was calculated based on the absolute number of each T-cell population.

STAT3 = target: T1, STAT3 (Homo sapiens, UniProt P40763); assay: STAT3 phosphorylation in CD4+ T cells of 5 day allo-MLRs without exogenous cytokine; type: cell-based; details: S3I-201 50 or 100 μM, 5 day allo-MLR
T1 construct: endogenous in cells; host or cells: primary human T cells from healthy-donor PBMC, allostimulated by monocyte-derived dendritic cells
T1 sequence (P40763 whole entry): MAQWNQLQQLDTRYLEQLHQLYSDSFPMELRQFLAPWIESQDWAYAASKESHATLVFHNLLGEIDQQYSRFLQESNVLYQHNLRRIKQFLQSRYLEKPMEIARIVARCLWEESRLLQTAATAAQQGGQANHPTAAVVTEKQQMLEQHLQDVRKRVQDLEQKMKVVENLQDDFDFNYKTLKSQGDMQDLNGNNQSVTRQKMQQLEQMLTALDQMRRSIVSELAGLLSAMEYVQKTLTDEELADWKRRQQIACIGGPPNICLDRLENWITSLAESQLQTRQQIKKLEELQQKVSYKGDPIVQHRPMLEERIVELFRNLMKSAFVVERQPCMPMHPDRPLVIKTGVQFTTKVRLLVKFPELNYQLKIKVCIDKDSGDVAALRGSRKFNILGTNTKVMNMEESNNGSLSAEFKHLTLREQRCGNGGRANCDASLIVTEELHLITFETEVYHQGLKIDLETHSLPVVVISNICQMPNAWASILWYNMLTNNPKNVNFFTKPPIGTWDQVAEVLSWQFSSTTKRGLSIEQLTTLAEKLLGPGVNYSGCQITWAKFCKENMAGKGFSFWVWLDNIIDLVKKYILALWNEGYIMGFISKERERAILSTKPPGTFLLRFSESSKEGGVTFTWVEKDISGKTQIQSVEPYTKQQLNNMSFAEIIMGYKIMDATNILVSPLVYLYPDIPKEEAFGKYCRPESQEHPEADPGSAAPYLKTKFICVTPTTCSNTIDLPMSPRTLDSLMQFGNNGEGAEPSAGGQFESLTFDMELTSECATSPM
Experimental: No exogenous cytokine was added. DC-allosensitized T cells were harvested on day 5. […] The ratio of CD4^+, pSTAT5^Bright to CD4^+, pSTAT3^+ T cells was calculated by percentage of phosphorylation.

primed T-cells = assay: Secondary alloMLR (3-day restimulation of primed T-cells) proliferation; type: cell-based, human
Description: Bulk donor T-cells were allostimulated with cytokine-matured, allogeneic moDCs at a DC:T-cell ratio of 1:30 as previously described (Florida Blood Services) [Betts, B C, et al. (2011) Blood 118:5330-9; Betts, B C, et al. […] Betts, B C, et al. (2011) Blood 118:5340-3]. […] Lower doses of each drug were used in these experiments to mimic expected physiologic concentrations [Siddiquee, K, et al. (2007) Proceedings of the National Academy of Sciences of the United States of America 104:7391-6; Zeiser, R, et al. (2008) Blood 111:453-62], and to better detect potential synergistic activity with the combination of rapamycin and S3I-201. After 5 days of culture at […]-cell proliferation was measured by a colorimetric assay per the manufacturer's instructions (CellTiter 96 Aqueous One Solution Cell Proliferation Assay [MTS]; Promega, Madison, Wis. USA) [Betts, B C, et al. (2011) Blood 118:5330-9; Betts, B C, et al. […] Betts, B C, et al. (2011) Blood 118:5340-3]. Absorbance/optical density (OD) was analyzed at 490 nm. Secondary alloMLR: […] Following priming, the T-cells were then rested and re-cultured with fresh first-party moDCs (DC:T-cell ratio of 1:30). […] After 3 days, T-cell proliferation was measured by a colorimetric assay as described (Promega). T-cells alone and PHA-stimulated T-cells served as negative and positive controls, respectively, for both the primary and secondary alloMLRs.

[1] = target: STAT3 Ser727 and Y705 motifs (Homo sapiens, UniProt P40763); details: literature; cited from earlier work
Chain of STAT3 Ser727 and Y705 motifs (P40763 whole entry): as above

RORgammaT = RORgammaT expression by RT-PCR in allostimulated CD4+ T-cells; type: cell-based, human; details: S3I-201 alone, 5 days
Experimental: To optimize the detection of RORgammaT expression, CD4+ T-cells were isolated by magnetic bead negative selection (Miltenyi Biotec, Auburn, Calif. USA). […] (2011) Blood 118:5330-9; Betts, B C, et al. (2013) J Leukoc Biol. 2014 95(2):205-13; Betts, B C, et al. (2011) Blood 118:5340-3]. […] After the 5 day culture, the T-cells were harvested. Total RNA was extracted using TRIZOL (Life Technologies) according to manufacturer instructions. […] RT-PCR was carried out on an ABI 7900 instrument (Applied Biosystems) and performed [Ratajewski, M, et al. (2012) J Immunol 189:3034-42] with some modification using SYBR® Green PCR Master Mix (Life Technologies) as follows: 10 minutes at 95° C. and then 45 cycles each at 95° C. for 15 seconds, 59° C. for 45 seconds, and 72° C. for 10 seconds. The following primers were used: RORgammaT forward [NT] ID NO:7) and reverse […] NO:8); GAPDH forward [NT] ID NO:9) and reverse [NT] ID NO:10). PCR product purity was assessed by dissociation curves. The differences in gene expression were calculated by 2-ΔΔCt in triplicate. Data were normalized to GAPDH expression.

With `Cc1ccc(S(=O)(=O)OCC(=O)Nc2ccc(C(=O)O)c(O)c2)cc1` [S3I-201] the “off-target effect on IL-2/STAT5 phosphorylation (geometric MFI ratio, percentage)” value (STAT5; S3I-201 100 μM vs DMSO) was “decrease in IL-2/STAT5 phosphorylation”, the “IL-2-induced STAT5 phosphorylation” value (STAT5; S3I-201 50 or 100 μM, 15 min IL-2 pulse, vs unstimulated baseline) was “occurred in all treated T cells” and the “absolute number of iTregs” value (iTregs and Tconvs; S3I-201 25 μM and 50 μM, dose-dependent, day 5) was “significantly increased”. For the same molecule, the “number of iTregs compared with DMSO” value (iTregs and Tconvs; S3I-201 100 μM) was “significantly reduced”, the “number of alloreactive Tconvs” value (iTregs and Tconvs; S3I-201, day 5) was “dramatically reduced” and the “ratio of iTregs to Tconvs” value (iTregs and Tconvs; S3I-201, day 5) was “increased ratio”. For the same molecule, the “STAT3 phosphorylation in CD4+ alloresponders” value (STAT3) was “maintained on-target suppression”, the inhibition at 50 µM (primed T-cells; Homo sapiens, T-cell, S3I-201 50 μM, read-out: inhibition of proliferation in comparison to DMSO) was 67% and the “proliferation of primed T-cells on rechallenge” value (primed T-cells; S3I-201 50 μM alone) was “significantly suppressed”. The “phosphorylation of the STAT3 Ser727 motif” value [1] was “much less”, the “phosphorylation of the STAT3 Y705 motif” value [1] was “predominantly inhibits” and the “RORgammaT expression compared with DMSO” value (RORgammaT) was “significant suppression”.
